According to patent US20250382296A1, “NITROGEN-CONTAINING FUSED THREE RING PRMT5 INHIBITOR, AND PREPARATION METHOD THEREFOR AND PHARMACEUTICAL USE THEREOF” (Abbisko Therapeutics Co., Ltd., priority 2022, published 2025):
pIC50: −log10 of the molar value.

Legend:
[1] = test system: HCT 116 wild-type MTAP cells; experiment: Inhibition of proliferation of HCT116 wild-type MTAP cells (CellTiter-Glo, 6 days); assay type: cell-based; settings: Homo sapiens, HCT-116, 144 h
Description: (§1) 1. HCT 116 MTAP-knockout cells and HCT 116 wild-type MTAP cells were plated in 96-well flat-bottom plates and cultured overnight at 37° C. and […] in McCoy's 5A medium containing 10% fetal bovine serum+1% penicillin-streptomycin.
(§2) 2. The next day, compounds were each dissolved in DMSO, diluted successively with DMSO and medium and then transferred to cell plates; the final concentration of each compound was 10 μM, 4-fold dilution was performed to obtain 9 concentration points, and a DMSO control was provided.
(§3) 3. Cells not treated with compound were subjected to CellTiter-Glo Luminescent Cell Viability Assay (Promega) to detect the cell viability, and reference was made to the kit instructions for the operation; the plates were then placed on an EnVision Multilabel Reader to detect luminescence signals.
(§4) 4. Meanwhile, the cell plates containing cells treated with compounds were cultured continuously at 37° C. and […] CO2 for 6 days.
(§5) 5. Then, the cell viability was also detected by CellTiter-Glo.
(§6) 6. Finally, dose response curves were plotted using the four parameter dose response curve module of GraphPad Prism v 9.2.0 software and proliferation inhibition IC50 (unit: nM) was calculated.

[2] = test system: HCT 116 MTAP-knockout cells; experiment: Inhibition of proliferation of HCT116 MTAP-knockout cells (CellTiter-Glo, 6 days); assay type: cell-based, human; settings: for pIC50: Homo sapiens, HCT-116, 144 h, proliferation inhibition, HCT116 MTAP-knockout, 6 days, CellTiter-Glo; for Selectivity: IC50 HCT116 wild-type cells / IC50 HCT116 MTAP-knockout cells
Description: as §1, §2, §3, §4, §5, §6

| SMILES | pIC50 [1] | pIC50 [2] | Selectivity [2] |
| --- | --- | --- | --- |
| C[Si](C)(C)CCOCn1cc(N(C(=O)c2ccc3nc(N)c4cncn4c3c2)[C@@H]2COc3cc(C(F)(F)F)ccc32)cn1 [Example 217, (S)-4-amino-N-(6-(trifluoromethyl)-2,3-dihydrobenzofuran-3-yl)-N-(1-((2-(trimethylsilyl)ethoxy)methyl)-1H-pyrazol-4-yl)imidazo[1,5-a]quinoxaline-8-carboxamide] | 6.26 | 7.39 | 13.3 |
| Nc1nc2ccc(C(=O)N(Cc3ccc(C(F)(F)F)cn3)CC(F)(F)F)cc2n2cncc12 [Example 148, 4-amino-N-(2,2,2-trifluoroethyl)-N-((5-(trifluoromethyl)pyridin-2-yl)methyl)imidazo[1,5-a]quinoxaline-8-carboxamide] | < 5.00 | 6.69 | >49.5 |
| CCC(C1CC1)N(Cc1ccc(C(F)(F)F)cn1)C(=O)c1ccc2nc(N)c3cncn3c2c1 (stereo not drawn) [Example 154, 4-amino-N-(1-cyclopropylpropyl)-N-((5-(trifluoromethyl)pyridin-2-yl)methyl)imidazo[1,5-a]quinoxaline-8-carboxamide] | 6.39 | 7.66 | 18.5 |

More lines, main results first:

| pIC50 [1] | pIC50 [2] | SMILES | Selectivity [2] |
| --- | --- | --- | --- |
| 5.97 | 7.96 | Nc1nc2ccc(C(=O)N(c3cn[nH]c3)[C@@H]3COc4cc(C(F)(F)F)ccc43)cc2n2cncc12 [Example 216, (S)-4-amino-N-(1H-pyrazol-4-yl)-N-(6-(trifluoromethyl)-2,3-dihydrobenzofuran-3-yl)imidazo[1,5-a]quinoxaline-8-carboxamide] | 98.3 |
| 5.79 | 8.00 | Nc1nc2ccc(C(=O)N(Cc3ccc(C(F)(F)F)nn3)CC3CC3)cc2n2cncc12 [Example 156, 4-amino-N-(cyclopropylmethyl)-N-((6-(trifluoromethyl)pyridazin-3-yl)methyl)imidazo[1,5-a]quinoxaline-8-carboxamide] | 160.7 |
| 6.03 | 7.80 | Cc1ncc2c(N)nc3ccc(C(=O)N(c4cnn(C)c4)[C@@H]4COc5cc(C(F)(F)F)ccc54)cc3n12 [Example 229, (S)-4-amino-1-methyl-N-(1-methyl-1H-pyrazol-4-yl)-N-(6-(trifluoromethyl)-2,3-dihydrobenzofuran-3-yl)imidazo[1,5-a]quinoxaline-8-carboxamide] | 58.4 |
| 6.15 | 8.10 | Cc1cc2nc(N)c3cncn3c2cc1C(=O)N(Cc1ccc(C(F)(F)F)cn1)CC1CC1 [Example 164, 4-amino-N-(cyclopropylmethyl)-7-methyl-N-((5-(trifluoromethyl)pyridin-2-yl)methyl)imidazo[1,5-a]quinoxaline-8-carboxamide] | 88.3 |
